From ChEMBL document CHEMBL1122308, “Bicyclic lactones derived from kainic acid as novel selective antagonists of neuroexcitatory amino acids” (J Med Chem, 1983) come the findings set out here.

In general, IC50 refers to the point on the concentration scale where inhibition reaches its midpoint. High values mean weaker potency in that assay, low ones greater potency in that assay.

What all share (type): functional
The species entered for test [1] is Rattus norvegicus. Briefly: Concentration at which the compound inhibits half of the response of kainic acid (KA).
The species entered for test [2] is Rattus norvegicus. Briefly: Percentage response to 0.1 mM of quisqualic acid at 1 mM in rat striatum slices.
The species named for test [3] is Rattus norvegicus. The test can be described thus: Percentage response to 0.5 mM of L-Glutamic acid at 1 mM in rat striatum slices.
The species named for test [4] is Rattus norvegicus. Briefly: Percentage response to 30 uM of N-methyl-D-aspartic acid (NMDA) at 1 mM in rat striatum slices.
The species named for test [5] is Rattus norvegicus. Briefly: Percentage response to 0.1 mM of kainic acid (KA) at 1 mM in rat striatum slices.
For test [6], the species on record is Rattus norvegicus. Briefly: Percentage response to 0.5 mM of L-Glutamic acid at 1.5 mM in rat striatum slices.
Test [7] is filed under the species Rattus norvegicus. The test can be described thus: Percentage response to 30 uM of N-methyl-D-aspartic acid (NMDA) at 1.5 mM in rat striatum slices.
The species named for test [8] is Rattus norvegicus. Briefly: Percentage response to 0.1 mM of quisqualic acid at 2 mM in rat striatum slices.
The species named for test [9] is Rattus norvegicus. Briefly: Percentage response to 0.5 mM of L-Glutamic acid at 2 mM in rat striatum slices.
The species named for test [10] is Rattus norvegicus. Briefly: Percentage response to 0.1 mM of kainic acid (KA) at 2 mM in rat striatum slices.
The species entered for test [11] is Rattus norvegicus. The test can be described thus: Percentage response to 30 uM of N-methyl-D-aspartic acid (NMDA) at 2 mM in rat striatum slices.
Test [12] is filed under the species Rattus norvegicus. Briefly: Concentration at which the compound inhibits half of the response of N-methyl-D-aspartic acid (NMDA).
Test [13] is filed under the species Rattus norvegicus. Briefly: Percentage response to 0.1 mM of kainic acid (KA) at 3 mM in rat striatum slices.
Test [14] is filed under the species Rattus norvegicus. The test can be described thus: Percentage response to 0.1 mM of quisqualic acid at 3 mM in rat striatum slices.
For test [15], the species on record is Rattus norvegicus. Briefly: Percentage response to 0.5 mM of L-Glutamic acid at 3 mM in rat striatum slices.
The species named for test [16] is Rattus norvegicus. Briefly: Percentage response to 30 uM of N-methyl-D-aspartic acid (NMDA) at 3 mM in rat striatum slices.

In the case of `CC1(CSc2ccccc2)OC(=O)C[C@@H]2[C@H](C(=O)O)NC[C@@H]21` (stereo partly drawn), half-maximal inhibition in the test listed under Rattus norvegicus [1] (IC50) was put at 0.2 mM. The Response in the test listed under Rattus norvegicus [2] is recorded as less than 53%; in the test filed under Rattus norvegicus [3], 87%; in the test filed under Rattus norvegicus [4], less than 36%; in the test filed under Rattus norvegicus [5] it was less than 0%.

Consider `CC1(CSc2ccccc2)OC(=O)C[C@@H]2[C@@H](C(=O)O)NC[C@@H]21` (stereo partly drawn), for which the Response in the test filed under Rattus norvegicus [2] is reported as 76%; in the test filed under Rattus norvegicus [6], 84%; in the test listed under Rattus norvegicus [5], less than 16%; in the test filed under Rattus norvegicus [7], less than 10%.

Regarding `CC1(CI)OC(=O)C[C@@H]2[C@@H](C(=O)O)NC[C@@H]21` (stereo partly drawn), the Response in the test filed under Rattus norvegicus [8] is 96%; in the test listed under Rattus norvegicus [9], 74%; in the test listed under Rattus norvegicus [10], less than 15%; in the test listed under Rattus norvegicus [11], less than 42%.

`CC1(C)OC(=O)C[C@@H]2[C@@H](C(=O)O)NC[C@@H]21`: the IC50 was found to be 3 mM in the test filed under Rattus norvegicus [1] and 0.3 mM in the test filed under Rattus norvegicus [12]. The Response in the test listed under Rattus norvegicus [8] is 94%; in the test listed under Rattus norvegicus [9], 96%; in the test filed under Rattus norvegicus [10], 66%; in the test filed under Rattus norvegicus [11], less than 16%.

With `NC(CCCP(=O)(O)O)C(=O)O` (stereo not drawn), the Response in the test filed under Rattus norvegicus [2] is recorded as less than 91%; in the test listed under Rattus norvegicus [3], less than 64%; in the test filed under Rattus norvegicus [4], less than 0%; in the test listed under Rattus norvegicus [5], 118%.

With `CC1(CI)OC(=O)C[C@@H]2[C@H](C(=O)O)NC[C@@H]21` (stereo partly drawn), the Response in the test listed under Rattus norvegicus [8] is listed as 111%; in the test listed under Rattus norvegicus [9] it was 79%; in the test listed under Rattus norvegicus [10] it was less than 8%; in the test listed under Rattus norvegicus [11] it was less than 49%.

Take `CC1(CO)OC(=O)C[C@@H]2[C@@H](C(=O)O)NC[C@@H]21` (stereo partly drawn): the results for the IC50 in the test filed under Rattus norvegicus [1] and in the test filed under Rattus norvegicus [12] were 3 mM and 2 mM, respectively. For the same compound, the Response in the test filed under Rattus norvegicus [13] is recorded as less than 50%; in the test filed under Rattus norvegicus [14] it was 94%; in the test filed under Rattus norvegicus [15] it was 106%; in the test listed under Rattus norvegicus [16], less than 36%.
